ChEMBL document CHEMBL5137004, “An overview on the synthetic urease inhibitors with structure-activity relationship and molecular docking” (Eur J Med Chem, 2022)

Tested on: not listed separately
Assay: Inhibition of urease (unknown origin) assessed as reduction on ammonia production using urea as substrate incubated for 15 mins by indophenol reagent based microplate reader assay
Conditions: not given

SMILES	IC50 [µM]
O=C(NNC(=S)Nc1ccc([N+](=O)[O-])cc1)c1ccc(-c2nc3ccccc3s2)cc1	1.4

Biological target: T1, Urease (Canavalia ensiformis, UniProt P07374)
Assay: Non-competitive inhibition of jack bean urease assessed as dissociation constant measured upto 10 mins by Lineweaver-Burk plot analysis
Conditions: not given

T1 sequence (P07374 whole entry): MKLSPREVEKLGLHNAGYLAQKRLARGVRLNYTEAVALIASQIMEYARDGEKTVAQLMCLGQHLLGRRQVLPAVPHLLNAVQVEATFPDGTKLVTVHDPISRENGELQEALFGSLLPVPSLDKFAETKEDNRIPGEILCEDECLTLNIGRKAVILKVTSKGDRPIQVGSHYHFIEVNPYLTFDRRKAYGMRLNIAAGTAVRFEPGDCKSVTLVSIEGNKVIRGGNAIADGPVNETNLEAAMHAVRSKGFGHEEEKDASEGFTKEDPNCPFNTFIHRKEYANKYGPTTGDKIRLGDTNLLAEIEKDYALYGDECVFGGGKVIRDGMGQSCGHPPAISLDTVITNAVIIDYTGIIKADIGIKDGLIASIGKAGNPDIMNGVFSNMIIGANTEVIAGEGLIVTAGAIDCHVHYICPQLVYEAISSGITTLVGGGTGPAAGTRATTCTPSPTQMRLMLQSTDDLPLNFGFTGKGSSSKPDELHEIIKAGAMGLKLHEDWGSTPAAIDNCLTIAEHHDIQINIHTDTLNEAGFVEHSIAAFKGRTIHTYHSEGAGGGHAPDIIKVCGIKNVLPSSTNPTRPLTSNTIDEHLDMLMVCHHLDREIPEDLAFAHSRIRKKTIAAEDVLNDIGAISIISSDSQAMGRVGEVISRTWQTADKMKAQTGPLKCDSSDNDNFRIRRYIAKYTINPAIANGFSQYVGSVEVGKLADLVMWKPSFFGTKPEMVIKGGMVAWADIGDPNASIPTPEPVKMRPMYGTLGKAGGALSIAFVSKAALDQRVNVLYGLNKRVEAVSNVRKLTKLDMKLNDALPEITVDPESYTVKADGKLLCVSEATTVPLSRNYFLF

SMILES	Ki [µM]
CCCCCCCCCCCCCC(=O)NC(=S)Nc1cccc(Cl)c1	0.021

Biological target: T1, Urease
Assay: Inhibition of jack bean urease assessed as reduction on ammonia production using urea as substrate preincubated for 15 mins followed by substrate addition and measured after 15 mins by indophenol method
Conditions: not given

SMILES	IC50 [µM]
CC(C)NCC(O)COc1ccc(CC(N)=O)cc1 (configuration not stated) [ATENOLOL]	64.4

Biological target: T1, Urease
Assay: Inhibition of jack bean urease
Conditions: not given

SMILES	IC50 [µM]
CCNC1NN=C(Cn2c(Cc3ccc(F)cc3)nc3ccccc3c2=O)S1 (configuration not stated)	4.73
Nn1c(-c2ccc(Br)cc2)n[nH]c1=S	4.3
CCNc1cc2c(cc1C)C1(c3cc(C)c(NCC)cc3O2)c2ccccc2C(=O)N1NC(=O)c1ccccc1	0.111
O=C1O[C@H]([C@@H](O)CO)C(O)=C1O [ASCORBIC ACID]	8.59
CCc1nc2cc([N+](=O)[O-])ccc2n1S(=O)(=O)c1ccc(C)cc1	31.1
C/C(=N\NC(=S)Nc1cccc([N+](=O)[O-])c1)c1cc2ccccc2o1	0.077
CCOc1ccc(NC(=S)N(CC(O)COc2ccc(CC(N)=O)cc2)C(C)C)cc1 (configuration not stated)	11.7
NNC(=O)c1ccc(C(=O)Cn2nc(-c3ccccc3O)nc2-c2ccccc2O)cc1	3.25
COc1cc(C(=O)c2c(O)c3ccccc3oc2=O)cc(OC)c1OC	11.3
O=C(Cc1nnn[nH]1)Cn1nc(-c2ccccc2O)nc1-c1ccccc1O	1.27
O=C(/C=C/c1ccc(O)c(O)c1)O[C@@H]1C[C@](O)(C(=O)Nc2ccc(-c3ccc(Cl)cc3[N+](=O)[O-])cc2)CC(O)C1O (some centres not stated)	11
Cc1ncc([N+](=O)[O-])n1Cc1cn(Cc2ccc(F)cc2)nn1	1.97

Tested on: not listed separately
Assay: Antioxidant activity assessed as DPPH radical scavenging activity incubated for 30 mins
Format: functional
Conditions: not given

SMILES	IC50 [µM]
COc1ccc(-c2c/c(=N\C(=S)Nc3cccc([N+](=O)[O-])c3)c3c(O)cc(O[C@@H]4O[C@H](CO)[C@@H](O)[C@H](O)[C@H]4O[C@@H]4O[C@@H](C)[C@H](O)[C@@H](O)[C@H]4O)cc3o2)cc1O	5.2
COc1ccc(-c2c/c(=N\C(=O)Oc3ccccc3)c3c(O)cc(O[C@@H]4O[C@H](CO)[C@@H](O)[C@H](O)[C@H]4O[C@@H]4O[C@@H](C)[C@H](O)[C@@H](O)[C@H]4O)cc3o2)cc1O	5.64
O=C(/C=C/c1ccc(O)c(O)c1)O[C@@H]1C[C@](O)(C(=O)Nc2ccc(-c3ccc(Cl)cc3[N+](=O)[O-])cc2)CC(O)C1O (some centres not stated)	5.1

Biological target: T1, Urease
Assay: Inhibition of jack bean urease assessed as reduction on ammonia production using urea as substrate incubated for 30 mins by indophenol reagent based UV-vis spectrophotometer
Conditions: not given

SMILES	IC50 [µM]
Cc1nc2cc(Cl)c(Cl)cc2n1Cc1nnc(S)n1-c1ccc([N+](=O)[O-])cc1	0.0294
Cc1nc2cc(Cl)c(Cl)cc2n1CC(=O)NNC(=S)Nc1ccc([N+](=O)[O-])cc1	0.0354
S=P(Nc1ccc(CCc2ccc(NP(=S)(c3ccccc3)c3ccccc3)cc2)cc1)(c1ccccc1)c1ccccc1	0.00191

Biological target: Urease subunit alpha/Urease subunit beta (Helicobacter pylori (strain ATCC 700392 / 26695) (Campylobacterpylori), UniProt P69996)
Assay: Inhibition of Helicobacter pylori urease
Format: protein-complex assay
Conditions: not given

Urease subunit alpha/Urease subunit beta, sequence (P69996 whole entry): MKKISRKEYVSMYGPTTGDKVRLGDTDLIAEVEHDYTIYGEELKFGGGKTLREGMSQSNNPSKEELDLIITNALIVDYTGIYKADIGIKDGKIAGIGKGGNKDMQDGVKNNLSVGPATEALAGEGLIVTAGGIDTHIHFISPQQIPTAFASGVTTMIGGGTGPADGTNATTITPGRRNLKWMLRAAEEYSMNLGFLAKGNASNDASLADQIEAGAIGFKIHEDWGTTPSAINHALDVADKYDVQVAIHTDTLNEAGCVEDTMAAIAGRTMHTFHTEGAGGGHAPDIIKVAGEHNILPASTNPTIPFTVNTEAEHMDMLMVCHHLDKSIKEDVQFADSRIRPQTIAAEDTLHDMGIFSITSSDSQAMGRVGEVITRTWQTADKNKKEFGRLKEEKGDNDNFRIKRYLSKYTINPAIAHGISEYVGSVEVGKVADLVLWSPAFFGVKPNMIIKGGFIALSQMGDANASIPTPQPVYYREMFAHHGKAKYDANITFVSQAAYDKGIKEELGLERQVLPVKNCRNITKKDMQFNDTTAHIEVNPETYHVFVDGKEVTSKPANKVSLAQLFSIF
Urease subunit alpha/Urease subunit beta, sequence (P14916 whole entry, further chain): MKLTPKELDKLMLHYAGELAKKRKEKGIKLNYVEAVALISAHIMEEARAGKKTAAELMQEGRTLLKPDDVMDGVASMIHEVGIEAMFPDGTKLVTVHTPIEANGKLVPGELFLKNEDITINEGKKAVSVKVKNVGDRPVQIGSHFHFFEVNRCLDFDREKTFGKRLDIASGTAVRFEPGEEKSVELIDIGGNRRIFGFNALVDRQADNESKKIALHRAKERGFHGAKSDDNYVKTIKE

SMILES	IC50 [µM]
O=C(COc1ccc(CC2C(=O)NC(=O)NC2=O)cc1)Nc1cccc(Cl)c1Cl	0.69
NC(=O)NO [HYDROXYUREA]	100
NC(N)=S [THIOUREA]	23

Biological target: T1, Urease
Assay: Inhibition of jack bean urease assessed as reduction on ammonia production using urea as substrate incubated for 30 mins by indophenol method
Conditions: not given

SMILES	IC50 [µM]
CCCCCCCCCCCCCC(=O)NC(=S)Nc1cccc(Cl)c1	0.0391
NC(N)=S [THIOUREA]	18.2

Tested on: not listed separately
Assay: Inhibition of urease (unknown origin)
Conditions: not given

SMILES	IC50 [µg/mL]
O=c1c2ccccc2nc(Cc2ccccc2)n1Cc1nnc(Nc2ccc([N+](=O)[O-])cc2)s1	3.3
CCc1nc2ccccc2c(=O)n1CC(=O)NNC(=O)c1cc2cc(Br)ccc2oc1=O	1.26

Same assay, conditions: read-out: IC50

SMILES	IC50 [µM]
Cc1ccc(/C=N/Nc2nc(-c3ccc(Br)cc3)cs2)cc1	0.11
COc1ccc(/C=C/C(=O)c2ccc(O)cc2)cc1	11.5
COc1ccc(-c2nc(C(=O)NC3CCCCC3)cs2)cc1	1.82
O=C1NC(=S)NC(=O)C1=CNc1cc([N+](=O)[O-])ccc1C(=O)O	8.53
O=[N+]([O-])c1ccc(S(=O)(=O)N/N=C(\c2ccccc2)c2ccc(O)cc2)cc1	3.9
CC(=O)NO [ACETOHYDROXAMIC ACID]	29.2
O=C(N/N=C/c1c(O)ccc2c(=O)cc(-c3ccc(F)cc3)oc12)c1ccccc1	1.21
O=C(CC(O)c1cc(Cl)ccc1OCc1ccccc1)NO (configuration not stated)	0.15
O=C1Nc2ccc(Cl)cc2/C1=C\c1ccc(C(=O)N/N=C/c2c(O)cc(O)cc2O)cc1	13
CC(C)=CCN1C(=O)/C(=N/Nc2ccccc2)c2ccccc21	0.71
COc1ccc(C(=O)NNC(=O)c2cc(Cl)cc(Cl)c2)cc1	0.87
Nc1cccc(C(c2c(O)c3ccccc3oc2=O)c2c(O)c3ccccc3oc2=O)c1	74.3
O=[N+]([O-])c1ccc(S(=O)(=O)Nc2nnc(-c3ccc(C(c4c[nH]c5ccc(Br)cc45)c4c[nH]c5ccc(Br)cc45)cc3)s2)c([N+](=O)[O-])c1	0.5

Biological target: T1, Urease
Assay: Inhibition of jack bean urease assessed as reduction on ammonia production using urea as substrate incubated for 15 mins by indophenol reagent based microplate reader assay
Conditions: not given

SMILES	IC50 [µM]
COc1ccc2cc([C@@H](C)c3nc4cc(Cl)ccc4[nH]3)ccc2c1	36
COc1ccc(-c2c/c(=N\C(=S)Nc3cccc([N+](=O)[O-])c3)c3c(O)cc(O[C@@H]4O[C@H](CO)[C@@H](O)[C@H](O)[C@H]4O[C@@H]4O[C@@H](C)[C@H](O)[C@@H](O)[C@H]4O)cc3o2)cc1O	12.6
NS(=O)(=O)c1ccc(NC=C2C(=O)NC(=S)NC2=O)cc1	3.76
COc1ccc(-c2c/c(=N\C(=O)Oc3ccccc3)c3c(O)cc(O[C@@H]4O[C@H](CO)[C@@H](O)[C@H](O)[C@H]4O[C@@H]4O[C@@H](C)[C@H](O)[C@@H](O)[C@H]4O)cc3o2)cc1O	15.6
Oc1ccc(C2Oc3cc(O)cc(O)c3/C(=N/C(=S)Nc3ccccc3)C2O)c(O)c1 (configuration not stated)	7.37
C[C@H](O)c1nc2ccccc2[nH]1	22
